Active and inactive are the calls of the source. The rule behind the calls is not given here. Where a SMILES comes first, the peptide text is derived from it. Bridges are numbered along the chain shown (N, C = ends).
What was measured:
[1] = target: TLR7 and TLR8 (Homo sapiens) (UniProt Q9NYK1+Q9NR97); assay: Antagonist activity at TLR7/8 in human THP1 cells assessed as reduction in R848-induced IL6 secretion at 50 uM after 24 hrs by ELISA; type: cell-based
Rattus norvegicus [2] = assay: Antiarthritic activity in Lewis rat model of complete Freund's adjuvant-induced arthritis assessed as regeneration of glycosaminoglycans at the border between bone and cartilage at 1 nmol/g administered intra-articularly into knee joint measured on third week by Safranin-O staining based histopathological analysis; type: functional, organism-based
Rattus norvegicus [3] = assay: Antiarthritic activity in Lewis rat model of complete Freund's adjuvant-induced arthritis assessed as reduction in mean articular index score at 1 nmol/g administered intra-articularly into knee joint for 6 weeks and measured every week during compound dosing; type: functional, organism-based
Rattus norvegicus [4] = assay: Antiarthritic activity in Lewis rat model of complete Freund's adjuvant-induced arthritis assessed as regain of normal feet physiology at 1 nmol/g administered intra-articularly into knee joint after 5 to 6 weeks by visual analysis; type: functional, organism-based
[5] = target: T1, Toll-like receptor 4 (Mus musculus) (UniProt Q9QUK6); assay: Antagonist activity at TLR4 in mouse RAW264.7 cells assessed as reduction in LPS-induced extracellular NO secretion at 5 to 50 uM by spectrophotometric method; type: cell-based
T1 sequence (whole entry): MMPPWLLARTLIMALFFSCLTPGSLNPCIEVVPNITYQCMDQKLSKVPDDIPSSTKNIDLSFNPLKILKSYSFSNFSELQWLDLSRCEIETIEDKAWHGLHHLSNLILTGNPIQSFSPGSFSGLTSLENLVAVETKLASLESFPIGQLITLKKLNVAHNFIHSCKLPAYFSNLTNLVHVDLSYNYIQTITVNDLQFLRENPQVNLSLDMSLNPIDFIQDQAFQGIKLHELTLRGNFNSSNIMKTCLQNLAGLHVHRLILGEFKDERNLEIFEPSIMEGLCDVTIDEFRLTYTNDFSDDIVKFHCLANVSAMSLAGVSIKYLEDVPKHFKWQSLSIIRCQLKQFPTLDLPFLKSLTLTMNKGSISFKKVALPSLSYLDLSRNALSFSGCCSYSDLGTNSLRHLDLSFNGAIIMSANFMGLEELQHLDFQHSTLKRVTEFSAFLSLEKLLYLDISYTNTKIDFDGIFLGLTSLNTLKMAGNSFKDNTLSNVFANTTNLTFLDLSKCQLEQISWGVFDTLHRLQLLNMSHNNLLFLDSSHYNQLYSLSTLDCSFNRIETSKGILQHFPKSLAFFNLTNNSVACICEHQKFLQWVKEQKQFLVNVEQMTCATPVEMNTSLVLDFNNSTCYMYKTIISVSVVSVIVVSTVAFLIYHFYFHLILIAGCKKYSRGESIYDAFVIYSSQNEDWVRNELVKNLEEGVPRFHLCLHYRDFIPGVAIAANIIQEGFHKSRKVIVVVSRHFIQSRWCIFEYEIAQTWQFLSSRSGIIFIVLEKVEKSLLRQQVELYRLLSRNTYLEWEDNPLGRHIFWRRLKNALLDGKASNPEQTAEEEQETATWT

Rattus norvegicus [6] = assay: Antiarthritic activity in Lewis rat model of complete Freund's adjuvant-induced arthritis assessed as appearance of osteocytes at 1 nmol/g administered intra-articularly into knee joint after 1 week by H and E staining based histopathological analysis; type: functional, organism-based
Toll-like receptor 4 [7] = target: T2, Toll-like receptor 4 (Homo sapiens, UniProt O00206); assay: Antagonist activity at TLR4 in human PBMC cells assessed as reduction in LPS-induced IL6 secretion at 20 to 80 uM after 24 hrs by ELISA; type: cell-based
[8] = target: T1, Toll-like receptor 4 (Mus musculus); assay: Antagonist activity at TLR4 in mouse RAW264.7 cells assessed as reduction in LPS-induced extracellular NO secretion at 20 to 80 uM by spectrophotometric method; type: cell-based
[9] = target: T3, Toll-like receptor 9 (Mus musculus) (UniProt Q9EQU3); assay: Antagonist activity at TLR9 in mouse RAW264.7 cells assessed as reduction in CpG ODN-induced TNFalpha secretion at 20 to 80 uM after 24 hrs by ELISA; type: cell-based
T3 sequence (whole entry): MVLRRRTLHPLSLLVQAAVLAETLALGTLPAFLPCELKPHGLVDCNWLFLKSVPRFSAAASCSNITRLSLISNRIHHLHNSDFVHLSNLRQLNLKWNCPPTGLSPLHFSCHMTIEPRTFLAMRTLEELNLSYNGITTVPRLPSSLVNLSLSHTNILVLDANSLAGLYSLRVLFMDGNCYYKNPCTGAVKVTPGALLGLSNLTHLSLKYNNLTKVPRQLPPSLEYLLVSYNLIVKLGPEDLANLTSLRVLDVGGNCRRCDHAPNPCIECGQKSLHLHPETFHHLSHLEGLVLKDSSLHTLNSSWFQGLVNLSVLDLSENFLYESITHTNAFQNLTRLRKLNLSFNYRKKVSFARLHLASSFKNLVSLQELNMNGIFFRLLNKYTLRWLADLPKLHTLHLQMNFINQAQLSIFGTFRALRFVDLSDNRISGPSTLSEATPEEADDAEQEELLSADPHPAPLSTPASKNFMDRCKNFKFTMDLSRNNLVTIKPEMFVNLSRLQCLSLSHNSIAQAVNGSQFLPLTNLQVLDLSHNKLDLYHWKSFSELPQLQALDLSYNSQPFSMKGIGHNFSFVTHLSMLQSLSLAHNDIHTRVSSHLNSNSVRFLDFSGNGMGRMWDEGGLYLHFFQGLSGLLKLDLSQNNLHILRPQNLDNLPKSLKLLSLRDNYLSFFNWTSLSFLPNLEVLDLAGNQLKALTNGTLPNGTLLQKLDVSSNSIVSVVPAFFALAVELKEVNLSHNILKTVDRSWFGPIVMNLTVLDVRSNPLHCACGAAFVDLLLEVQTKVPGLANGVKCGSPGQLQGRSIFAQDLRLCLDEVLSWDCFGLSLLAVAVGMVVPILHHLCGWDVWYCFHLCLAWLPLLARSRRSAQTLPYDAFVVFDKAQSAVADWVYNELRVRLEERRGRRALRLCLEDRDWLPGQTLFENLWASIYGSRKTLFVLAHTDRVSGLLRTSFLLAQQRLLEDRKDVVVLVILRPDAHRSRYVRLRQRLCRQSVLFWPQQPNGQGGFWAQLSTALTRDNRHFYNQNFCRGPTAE

[10] = target: Toll-like receptor 2 (Homo sapiens) (UniProt O60603); assay: Non-specific binding affinity to human TLR2 up to 200 uM by surface plasmon resonance analysis
[11] = target: T1, Toll-like receptor 4 (Mus musculus); assay: Antagonist activity at TLR4 in mouse BMDM cells assessed as reduction in LPS-induced extracellular NO secretion by spectrophotometric method; type: cell-based
[12] = target: Toll-like receptor 1/2 (Homo sapiens) (UniProt O60603+Q15399); assay: Antagonist activity at TLR2/1 in human PBMC cells assessed as reduction in PAM3CSK4-induced TNFalpha secretion at 20 to 80 uM after 24 hrs by ELISA; type: cell-based
[13] = target: T1, Toll-like receptor 4 (Mus musculus); assay: Antagonist activity at TLR4 in mouse RAW264.7 cells assessed as reduction in LPS-induced iNOS expression at 80 uM by Western blot analysis; type: cell-based
Toll-like receptor 4 [14] = target: T2, Toll-like receptor 4; assay: Antagonist activity at TLR4 in human PBMC cells assessed as reduction in LPS-induced NFkappaB p65 phosphorylation at 80 uM after 15 to 30 mins by Western blot analysis; type: cell-based

T2 sequence (O00206 whole entry): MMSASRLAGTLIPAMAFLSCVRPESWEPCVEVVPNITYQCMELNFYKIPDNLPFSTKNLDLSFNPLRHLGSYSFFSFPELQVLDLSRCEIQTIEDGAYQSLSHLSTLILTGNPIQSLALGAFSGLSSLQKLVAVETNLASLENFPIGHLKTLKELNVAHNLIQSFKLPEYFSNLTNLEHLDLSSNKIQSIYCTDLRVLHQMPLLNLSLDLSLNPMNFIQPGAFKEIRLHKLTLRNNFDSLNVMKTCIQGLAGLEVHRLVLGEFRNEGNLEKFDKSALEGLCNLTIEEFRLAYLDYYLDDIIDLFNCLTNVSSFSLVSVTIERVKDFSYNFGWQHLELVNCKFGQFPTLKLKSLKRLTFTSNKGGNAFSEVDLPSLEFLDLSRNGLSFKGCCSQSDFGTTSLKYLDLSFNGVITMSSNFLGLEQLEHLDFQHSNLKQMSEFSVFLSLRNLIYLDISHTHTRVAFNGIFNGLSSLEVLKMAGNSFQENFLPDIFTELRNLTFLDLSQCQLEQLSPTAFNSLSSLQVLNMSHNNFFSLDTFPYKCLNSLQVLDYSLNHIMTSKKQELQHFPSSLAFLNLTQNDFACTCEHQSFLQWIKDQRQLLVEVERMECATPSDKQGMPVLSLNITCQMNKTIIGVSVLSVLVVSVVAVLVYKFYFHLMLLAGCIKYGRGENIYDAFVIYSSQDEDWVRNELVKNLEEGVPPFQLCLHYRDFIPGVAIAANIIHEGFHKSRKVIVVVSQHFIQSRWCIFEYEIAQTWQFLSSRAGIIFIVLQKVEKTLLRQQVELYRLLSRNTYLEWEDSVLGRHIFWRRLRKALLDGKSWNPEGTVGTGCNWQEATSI
Chain of Toll-like receptor 2 (Homo sapiens) (O60603 whole entry): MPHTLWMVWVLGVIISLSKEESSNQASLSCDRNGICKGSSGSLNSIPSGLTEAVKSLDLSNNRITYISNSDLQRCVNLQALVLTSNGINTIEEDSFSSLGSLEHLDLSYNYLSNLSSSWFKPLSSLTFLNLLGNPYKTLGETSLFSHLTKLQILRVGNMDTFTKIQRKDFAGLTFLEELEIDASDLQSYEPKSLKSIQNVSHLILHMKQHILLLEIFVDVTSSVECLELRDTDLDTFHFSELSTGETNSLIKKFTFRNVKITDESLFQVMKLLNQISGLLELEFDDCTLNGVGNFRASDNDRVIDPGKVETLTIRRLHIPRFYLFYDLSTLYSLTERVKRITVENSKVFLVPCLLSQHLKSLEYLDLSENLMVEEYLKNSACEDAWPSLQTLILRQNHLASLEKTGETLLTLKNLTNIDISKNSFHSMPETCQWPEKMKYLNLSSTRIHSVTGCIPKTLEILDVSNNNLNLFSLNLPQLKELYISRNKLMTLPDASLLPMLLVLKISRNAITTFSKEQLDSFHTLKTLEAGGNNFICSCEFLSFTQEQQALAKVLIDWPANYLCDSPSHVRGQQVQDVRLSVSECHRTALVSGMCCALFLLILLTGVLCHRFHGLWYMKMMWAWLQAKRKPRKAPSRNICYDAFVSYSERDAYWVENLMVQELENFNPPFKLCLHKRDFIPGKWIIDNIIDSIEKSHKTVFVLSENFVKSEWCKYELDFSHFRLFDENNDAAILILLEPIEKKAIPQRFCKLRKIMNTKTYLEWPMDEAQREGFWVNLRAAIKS

Molecule	Activity [1]	Activity (Rattus norvegicus [2])	Activity (Rattus norvegicus [3])	Activity (Rattus norvegicus [4])	Activity [5]	Activity (Rattus norvegicus [6])	Activity (Toll-like receptor 4 [7])	Activity [8]	Activity [9]	Activity [10]	Activity [11]	Activity [12]	Activity [13]	Activity (Toll-like receptor 4 [14])
CC[C@H](C)[C@@H]1NC(=O)[C@H](Cc2c[nH]c3ccccc23)NC(=O)[C@H](Cc2c[nH]c3ccccc23)NC(=O)[C@@H](NC(=O)[C@H](CO)NC(=O)[C@H](Cc2ccccc2)NC(=O)[C@@H](NC(=O)CNC(=O)[C@@H](N)CC(C)C)C(C)C)CC(=O)NCCCC[C@@H](C(=O)N[C@@H](CC(C)C)C(=O)N[C@H](C(=O)O)C(C)C)NC1=O (H-LGVFSDWWIKLV-OH; lactam 6-10)	Active	Active	Active	Active	Active	Active								
H-LGVFSSWWIKLV-OH							Active	Active	inactive	Active	Dose-dependent effect	inactive	Active	Active
